“Also recorded” adds a separate entry of the source. Like-named read-outs stand apart in the source and are kept apart here.
Experiments:
[1] = tested on: human foreskin fibroblasts (HFF); test: Toxicity for host cells, 3H thymidine incorporation by non-confluent HFF; assay type: cell-based; conditions: increasing concentrations, tested concomitantly with T. gondii
[2] = tested on: T. gondii tachyzoites (RH strain); test: Murine toxoplasmosis, i.p. JPC-2067-B, peritoneal parasite burden; assay type: in vivo, mice (outbred Swiss Webster)
Protocol: Tachyzoites also were used to infect mice. Outbred Swiss Webster mice were bred in our specific pathogen free colony. When they were approximately 30 g, they received 10,000 RH strain tachyzoites intra-peritoneally (i.p.); numbers of parasites present in peritoneal fluid were counted four days later as described,[13]. Mice were maintained and utilized in accordance with IACUC and NIH guidelines and approvals. JPC-2067-B was administered parenterally. In initial studies, this was given 15 minutes after i.p. infection and then each day for four days(1.25 mg/kg/day). […] Control mice received 1% DMSO in PBS. For these parenterally treated mice, female mice received a dose of 1.25 mg/kg/day of JPC-2067-B, administered i.p. for the next 3 days. Control mice received an equivalent amount of DMSO (1%) in 1× PBS. In a separate experiment, DMSO at this concentration was shown not to modify subsequent parasite numbers when compared with i.p. inoculation of PBS. […] In contrast, infected control mice appeared ill, with ruffled fur and hunched posture. […] These differences between control and treated mice were statistically significant (p<0.05).

[3] = target: T1, Rat liver DHFR (Rattus norvegicus, UniProt Q920D2); test: Spectrophotometric DHFR assay, rat liver DHFR; assay type: biochemical; conditions: 37°C; (95% confidence limits)
T1 construct: Rat liver DHFR was prepared from livers of female Sprague-Dawley rats; from tissue; host or cells: liver of female Sprague-Dawley rats
T1 sequence (Q920D2 1-187): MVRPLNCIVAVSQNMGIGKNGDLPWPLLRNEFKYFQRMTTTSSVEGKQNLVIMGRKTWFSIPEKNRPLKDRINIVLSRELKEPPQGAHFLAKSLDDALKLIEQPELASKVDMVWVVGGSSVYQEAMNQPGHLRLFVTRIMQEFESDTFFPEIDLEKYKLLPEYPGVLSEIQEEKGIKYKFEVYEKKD
Protocol: Rat liver DHFR was prepared from livers of female Sprague-Dawley rats. The 100,000× g supernate was partially purified by ammonium sulfate precipitation; the 50–90% precipitate was re-dissolved and stored in liquid nitrogen.
(§1) The spectrophotometric assay for DHFR was optimized for temperature and concentration of substrate and cofactor for each enzyme. […] The reaction was continuously recorded for 3 minutes. […] The low background activity in the absence of dihydrofolic acid was subtracted from all rates.
(§2) DHFR was assayed with several concentrations of inhibitor to produce rates ranging from 1 to 90% of the uninhibited rate. At least three concentrations were required for calculation; most curves contained five concentrations.

[4] = target: T2, TgDHFR (Toxoplasma gondii, UniProt Q07422); test: biochemical; assay type: biochemical; conditions: 37°C
T2 construct: DHFR from T. gondii was isolated directly from RH strain T. gondii grown in culture; endogenous in cells; host or cells: RH strain T. gondii grown on CHO/dhfr- cells
T2 sequence (Q07422 1-610): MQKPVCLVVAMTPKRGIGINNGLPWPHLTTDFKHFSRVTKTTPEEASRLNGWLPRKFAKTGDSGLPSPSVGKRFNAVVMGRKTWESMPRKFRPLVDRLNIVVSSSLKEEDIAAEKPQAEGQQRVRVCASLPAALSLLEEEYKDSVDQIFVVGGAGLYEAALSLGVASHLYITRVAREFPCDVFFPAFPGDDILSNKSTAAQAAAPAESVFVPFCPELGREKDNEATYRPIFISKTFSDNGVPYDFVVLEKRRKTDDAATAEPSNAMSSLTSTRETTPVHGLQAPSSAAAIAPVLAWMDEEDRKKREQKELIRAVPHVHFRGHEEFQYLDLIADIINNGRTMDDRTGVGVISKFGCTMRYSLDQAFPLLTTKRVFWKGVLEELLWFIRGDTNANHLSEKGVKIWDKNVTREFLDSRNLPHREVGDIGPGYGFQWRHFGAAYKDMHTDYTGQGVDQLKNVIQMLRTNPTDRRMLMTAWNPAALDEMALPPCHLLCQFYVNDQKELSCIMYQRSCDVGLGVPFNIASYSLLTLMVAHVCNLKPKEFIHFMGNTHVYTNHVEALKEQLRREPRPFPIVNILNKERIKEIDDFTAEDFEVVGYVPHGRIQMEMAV
Protocol: DHFR from Pneumocystis carinii was produced as the recombinant enzyme expressed in Escherichia coli. […] Organisms were introduced into a confluent monolayer and harvested when the mammalian cells were lysed. The 100,000× g supernate was stored in liquid nitrogen.
as §1, §2

[5] = target: T3, hDHFR (Homo sapiens, UniProt P00374); test: Plate reader DHFR assay, recombinant human DHFR; assay type: biochemical
T3 construct: made in house
T3 sequence (P00374 1-187): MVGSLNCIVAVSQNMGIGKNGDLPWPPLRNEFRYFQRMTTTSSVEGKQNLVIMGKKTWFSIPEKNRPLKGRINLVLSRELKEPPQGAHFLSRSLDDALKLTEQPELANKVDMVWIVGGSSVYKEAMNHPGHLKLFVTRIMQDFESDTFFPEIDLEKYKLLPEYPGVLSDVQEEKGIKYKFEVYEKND
Excerpt: (§3) DHFR from T. gondii prepared as above was also directly compared to purified recombinant P. falciparum DHFR (pfDHFR) and purified recombinant human DHFR (hDHFR). The hDHFR was from pDFR plasmid. The enzyme was purified following ammonium sulfate precipitation, methotrexate:agarose affinity chromatography, and finally a Superdex 200 size exclusion column. The pfDHFR isolation methods were those reported previously,[44]. […] The same buffer as used in the other assays comparing T. gondii DHFR with DHFRs from rat liver P. carinii and M. avium intracellulare was used but the maximal activity, temperature, and length of observation were adjusted for assays on the specific plate reader. […] The reaction was setup at 23°C, the plate loaded, and the OD340 recorded at 20 second intervals for 10 minutes. The first 8 minutes were used to generate linear fit slopes in Excel. […] Results are expressed as the percent of control activity versus log concentration of inhibitor. Prism 5.0 was used to generate curves from 12 different concentrations of inhibitor using a non-linear fit method.

[6] = target: T2, TgDHFR; test: biochemical; assay type: biochemical; conditions: 23°C
Excerpt: as §3

CC1(C)N=C(N)N=C(N)N1OCCCOc1ccc(OC(F)(F)F)cc1Cl [JPC-2067-B, 4,6-diamino-1,2-dihydro-2,2-dimethyl-1-(3′(2-chloro-, 4-trifluoromethoxyphenoxy)propyloxy)-1,3,5-triazine]
Toxicity for host cells, uptake of tritiated thymidine by nonconfluent fibroblasts [1]: no toxic effect on host cells; also recorded: no toxicity | Intraperitoneal parasite numbers ([2]; 1.25 mg/kg/day i.p., 10,000 RH tachyzoites i.p., fifth day after injection of parasites, p<0.05): reduced by two logs | Appearance of treated mice ([2]; 1.25 mg/kg/day i.p., 4 days after infection): sleek and active | IC50 [3]: 0.0222 µM | IC50 ([4]; (95% confidence limits), read-out: Tg DHFR IC50): 0.0065 µM | Ratio of IC50 values rat liver DHFR/TgDHFR ([4]; lysates): 3.4 | IC50 ([5]; recombinant, 23°C, (95% Confidence Intervals), read-out: hDHFR IC50): 0.148 µM | IC50 ([5]; text to Figure 5 and Table 2, read-out: IC50 for human DHFR): 0.15 µM | IC50 ([6]; Tg lysate, (95% Confidence Intervals)): 0.032 µM | Ratio of IC50 values hDHFR/tgDHFR ([6]; high throughput method): 4.6

Reference: article PMC2254147, “Novel Triazine JPC-2067-B Inhibits Toxoplasma gondii In Vitro and In Vivo” (PLoS Neglected Tropical Diseases, 2008)
